From paper PMC12136037, “Type II kinase inhibitors that target Parkinson’s disease–associated LRRK2” (Science Advances, 2025)

What was measured:
Assay in all cases: DSF 100 kinase selectivity screen;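 also: compound tested at 20 µM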
Assay type in all cases: binding
[1] = biological target: T1, ~100 representative kinases (Homo sapiens, UniProt Q99683); conditions: protein MAP3K5; average of three replicates
T1 construct: Recombinant protein kinase domains with a concentration of 2 μM
T1 sequence (Q99683 1-1374): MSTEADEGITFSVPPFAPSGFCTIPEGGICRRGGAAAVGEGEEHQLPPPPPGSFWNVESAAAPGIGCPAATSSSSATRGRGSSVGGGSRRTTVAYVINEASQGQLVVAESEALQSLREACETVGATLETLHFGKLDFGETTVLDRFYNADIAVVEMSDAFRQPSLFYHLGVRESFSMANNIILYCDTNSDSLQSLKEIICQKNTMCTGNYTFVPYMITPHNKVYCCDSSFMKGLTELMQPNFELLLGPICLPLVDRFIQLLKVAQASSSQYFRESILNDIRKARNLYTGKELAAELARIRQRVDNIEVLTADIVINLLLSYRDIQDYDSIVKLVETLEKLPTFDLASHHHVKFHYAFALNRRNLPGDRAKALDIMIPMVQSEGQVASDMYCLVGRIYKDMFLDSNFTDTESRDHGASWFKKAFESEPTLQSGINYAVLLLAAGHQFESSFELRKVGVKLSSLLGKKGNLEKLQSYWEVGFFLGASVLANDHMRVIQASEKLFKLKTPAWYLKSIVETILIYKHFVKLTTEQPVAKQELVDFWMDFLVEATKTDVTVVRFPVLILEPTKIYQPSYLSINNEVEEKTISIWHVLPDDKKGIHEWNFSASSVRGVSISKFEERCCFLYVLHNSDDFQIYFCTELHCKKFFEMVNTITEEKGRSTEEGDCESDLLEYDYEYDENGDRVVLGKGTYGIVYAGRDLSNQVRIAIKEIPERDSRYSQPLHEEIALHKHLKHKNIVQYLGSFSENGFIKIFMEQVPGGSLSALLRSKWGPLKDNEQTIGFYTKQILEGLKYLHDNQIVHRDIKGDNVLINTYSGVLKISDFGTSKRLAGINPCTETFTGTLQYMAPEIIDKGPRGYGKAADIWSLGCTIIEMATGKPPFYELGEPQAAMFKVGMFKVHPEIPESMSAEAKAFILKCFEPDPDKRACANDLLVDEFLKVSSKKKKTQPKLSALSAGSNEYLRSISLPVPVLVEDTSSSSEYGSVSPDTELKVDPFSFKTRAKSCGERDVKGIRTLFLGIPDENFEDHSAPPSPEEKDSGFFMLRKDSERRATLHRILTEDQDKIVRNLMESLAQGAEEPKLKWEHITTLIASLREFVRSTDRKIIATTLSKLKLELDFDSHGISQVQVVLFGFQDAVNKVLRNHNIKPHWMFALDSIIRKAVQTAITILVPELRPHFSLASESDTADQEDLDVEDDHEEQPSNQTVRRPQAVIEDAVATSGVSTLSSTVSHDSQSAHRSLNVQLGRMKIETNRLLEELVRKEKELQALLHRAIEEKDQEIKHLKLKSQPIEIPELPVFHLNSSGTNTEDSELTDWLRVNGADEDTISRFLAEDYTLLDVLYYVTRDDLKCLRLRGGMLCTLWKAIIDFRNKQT
In short: (§1)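 Each kinase domain, at 2 μM, is mixed with 20 μM test compound and SYPRO Orange in Hepes (20 mM, pH 7.5) with 500 mM NaCl. Temperature is then raised at 3°C/min and fluorescence-monitored unfolding yields the melting temperature change, ΔTm in degrees Celsius.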

[2] = biological target: T2, ~100 representative kinases (Homo sapiens, UniProt P54753); conditions: Protein EPHB3A; average of three replicates
T2 construct: Recombinant protein kinase domains with a concentration of 2 μM
T2 sequence (P54753 34-998): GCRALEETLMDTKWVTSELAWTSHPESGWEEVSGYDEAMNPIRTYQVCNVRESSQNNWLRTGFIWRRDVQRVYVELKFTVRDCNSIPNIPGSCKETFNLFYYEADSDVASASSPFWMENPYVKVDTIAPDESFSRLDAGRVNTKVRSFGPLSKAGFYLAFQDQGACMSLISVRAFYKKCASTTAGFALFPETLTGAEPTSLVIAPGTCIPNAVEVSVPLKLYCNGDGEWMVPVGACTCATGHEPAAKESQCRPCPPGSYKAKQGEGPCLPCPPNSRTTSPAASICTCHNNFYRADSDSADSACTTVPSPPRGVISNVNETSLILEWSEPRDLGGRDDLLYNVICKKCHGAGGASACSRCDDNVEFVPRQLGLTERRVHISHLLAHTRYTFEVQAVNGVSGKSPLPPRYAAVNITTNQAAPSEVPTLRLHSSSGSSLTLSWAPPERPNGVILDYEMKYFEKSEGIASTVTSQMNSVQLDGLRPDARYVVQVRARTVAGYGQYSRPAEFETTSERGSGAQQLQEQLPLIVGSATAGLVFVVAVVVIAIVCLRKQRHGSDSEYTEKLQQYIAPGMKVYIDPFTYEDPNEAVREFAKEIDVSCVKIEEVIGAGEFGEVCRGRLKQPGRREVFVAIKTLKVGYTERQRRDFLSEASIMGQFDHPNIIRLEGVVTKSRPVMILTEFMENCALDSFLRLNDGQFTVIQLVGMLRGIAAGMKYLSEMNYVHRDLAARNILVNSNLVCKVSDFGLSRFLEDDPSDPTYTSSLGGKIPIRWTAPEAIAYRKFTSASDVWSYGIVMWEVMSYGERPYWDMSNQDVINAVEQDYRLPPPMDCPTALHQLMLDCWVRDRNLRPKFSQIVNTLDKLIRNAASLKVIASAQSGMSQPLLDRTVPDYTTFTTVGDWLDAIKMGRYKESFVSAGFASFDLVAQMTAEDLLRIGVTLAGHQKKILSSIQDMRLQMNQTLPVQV
In short: as §1

[3] = biological target: T3, ~100 representative kinases (Homo sapiens, UniProt P11362); conditions: protein FGFR1; average of three replicates
T3 construct: Recombinant protein kinase domains with a concentration of 2 μM
T3 sequence (P11362 22-822): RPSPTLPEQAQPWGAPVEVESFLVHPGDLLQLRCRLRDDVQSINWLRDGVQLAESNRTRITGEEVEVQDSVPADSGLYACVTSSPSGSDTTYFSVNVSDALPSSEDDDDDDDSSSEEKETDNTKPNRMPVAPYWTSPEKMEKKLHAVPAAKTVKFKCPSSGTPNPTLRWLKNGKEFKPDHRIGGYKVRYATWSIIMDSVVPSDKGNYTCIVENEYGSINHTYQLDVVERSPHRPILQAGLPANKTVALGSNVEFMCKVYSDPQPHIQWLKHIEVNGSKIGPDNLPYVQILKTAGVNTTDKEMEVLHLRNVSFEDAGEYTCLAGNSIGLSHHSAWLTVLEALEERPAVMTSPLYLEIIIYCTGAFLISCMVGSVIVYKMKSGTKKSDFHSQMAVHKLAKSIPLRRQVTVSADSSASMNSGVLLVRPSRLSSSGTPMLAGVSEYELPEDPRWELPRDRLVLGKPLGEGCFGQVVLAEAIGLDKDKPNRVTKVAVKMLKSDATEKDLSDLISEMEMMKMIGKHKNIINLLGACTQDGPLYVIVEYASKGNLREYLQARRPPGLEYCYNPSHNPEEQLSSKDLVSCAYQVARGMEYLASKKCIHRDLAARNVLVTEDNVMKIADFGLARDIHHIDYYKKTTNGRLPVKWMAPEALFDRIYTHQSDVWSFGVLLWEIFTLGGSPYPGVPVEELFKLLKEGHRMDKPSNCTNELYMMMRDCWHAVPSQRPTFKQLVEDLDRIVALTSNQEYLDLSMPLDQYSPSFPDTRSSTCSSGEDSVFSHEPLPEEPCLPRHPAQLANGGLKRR
In short: as §1

SMILES | dTm [1] [K] | dTm [2] [K] | dTm [3] [K]
Cc1ccc(C(=O)Nc2ccc(CN3CCN(C)CC3)c(C(F)(F)F)c2)cc1C#Cc1c[nH]c2ncnc(N3CCOCC3)c12 [Compound 1] | 6.86 | 4.94 | 2.59
O=C(Nc1cccc(-c2c[nH]c3ncnc(N4CCOCC4)c23)c1)c1cccn(-c2ccc(F)cc2)c1=O [Compound 4] | 4.59 | 3.66 | 3.37
O=C(Nc1cccc(-c2c[nH]c3ncnc(N4CCOCC4)c23)c1)C1(C(=O)Nc2cccc3c2CCC3)CC1 [Compound 11] | 3.33 | 0.28 | 0.52
CCc1ccc(NC(=O)C2(C(=O)Nc3cccc(-c4c[nH]c5ncnc(N6CCOCC6)c45)c3)CC2)cc1 [Compound 15] | 1.27 | 4.01 | 0.64
CC(C)(C)c1cccc(NC(=O)C2(C(=O)Nc3cccc(-c4c[nH]c5ncnc(N6CCOCC6)c45)c3)CC2)c1 [Compound 22] | 2.56 | 0.59 | 1.53
CC(C)(C)c1cc(NC(=O)Nc2cccc(-c3c[nH]c4ncnc(N5CCOCC5)c34)c2)n(-c2ccc3ncccc3c2)n1 [Compound 28] | 3.36 | 11.98 | 8.37
Cc1ccc(-n2nc(C(C)(C)C)cc2NC(=O)Nc2cccc(-c3c[nH]c4ncnc(N5CCOCC5)c34)c2)cc1 [Compound 29] | 4.49 | -2.20 | 5.95
Cc1ccc(-n2nc(C(C)(C)C)cc2NC(=O)Nc2cccc(-c3c[nH]c4nc(Cl)nc(N5CCOCC5)c34)c2)cc1 [Compound 30] | 1.60 | 0.0373 | 1.65
CC(=O)N1CCN(c2nc(Cl)nc3[nH]cc(-c4cccc(NC(=O)Nc5cc(C(C)(C)C)nn5-c5ccc(C)cc5)c4)c23)CC1 [Compound 31] | 1.23 | -1.56 | 1.76
CCSc1nc(NC)c2c(-c3cccc(NC(=O)Nc4cc(C(C)(C)C)nn4-c4ccc(C)cc4)c3)c[nH]c2n1 [Compound 32] | 0.73 | -3.33 | 0.60
COc1cc(C(=O)N2CCOCC2)c(F)cc1Nc1nc(N(C)C)c2c(Cl)c[nH]c2n1 [Compound 36] | 6.66 | -1.35 | -0.10
Cc1ccc(C(=O)Nc2ccc(CN3CCN(C)CC3)c(C(F)(F)F)c2)cc1C#Cc1cnc2cccnn12 [Ponatinib, reference compound] | – | 13.49 | 11.47
CN[C@@H]1C[C@H]2O[C@@](C)([C@@H]1OC)n1c3ccccc3c3c4c(c5c6ccccc6n2c5c31)C(=O)NC4 [Staurosporine] | – | 7.02 | –

Further lines, results first:

dTm [1] [K] | dTm [2] [K] | dTm [3] [K] | SMILES
3.63 | 2.82 | 1.19 | O=C(Nc1ccc(F)cc1)C1(C(=O)Nc2cccc(-c3c[nH]c4ncnc(N5CCOCC5)c34)c2)CC1 [Compound 2]
4.24 | 0.34 | 0.32 | Cc1cc(NC(=O)C2(C(=O)Nc3ccc(F)cc3)CC2)cc(-c2c[nH]c3ncnc(N4CCOCC4)c23)c1 [Compound 6]
2.42 | 3.99 | 1.41 | O=C(Nc1ccccc1)C1(C(=O)Nc2cccc(-c3c[nH]c4ncnc(N5CCOCC5)c34)c2)CC1 [Compound 12]
4.01 | 5.32 | 1.36 | O=C(Nc1ccc(Cl)cc1)C1(C(=O)Nc2cccc(-c3c[nH]c4ncnc(N5CCOCC5)c34)c2)CC1 [Compound 13]
1.35 | 3.71 | 0.77 | Cc1ccc(NC(=O)C2(C(=O)Nc3cccc(-c4c[nH]c5ncnc(N6CCOCC6)c45)c3)CC2)cc1 [Compound 14]
0.46 | 0.59 | 0.70 | COc1ccc(NC(=O)C2(C(=O)Nc3cccc(-c4c[nH]c5ncnc(N6CCOCC6)c45)c3)CC2)cc1 [Compound 16]
3.32 | 1.94 | 1.11 | O=C(Nc1cccc(-c2c[nH]c3ncnc(N4CCOCC4)c23)c1)C1(C(=O)Nc2ccc(F)c(F)c2)CC1 [Compound 17]
3.67 | 2.57 | 2.20 | O=C(Nc1cccc(-c2c[nH]c3ncnc(N4CCOCC4)c23)c1)C1(C(=O)Nc2ccc(F)c(Cl)c2)CC1 [Compound 18]
5.22 | 1.12 | 1.26 | O=C(Nc1cccc(-c2c[nH]c3ncnc(N4CCOCC4)c23)c1)C1(C(=O)Nc2ccc(F)c(Br)c2)CC1 [Compound 19]
4.77 | 3.99 | 2.46 | Cc1cc(NC(=O)C2(C(=O)Nc3cccc(-c4c[nH]c5ncnc(N6CCOCC6)c45)c3)CC2)ccc1F [Compound 20]
2.37 | 0.65 | 1.39 | COc1cc(NC(=O)C2(C(=O)Nc3cccc(-c4c[nH]c5ncnc(N6CCOCC6)c45)c3)CC2)ccc1F [Compound 21]
2.39 | 1.84 | 1.14 | O=C(Nc1cccc(-c2c[nH]c3ncnc(N4CCOCC4)c23)c1)C1(C(=O)Nc2ccc(F)cc2F)CC1 [Compound 23]
1.15 | 1.32 | 0.81 | Cc1cc(F)ccc1NC(=O)C1(C(=O)Nc2cccc(-c3c[nH]c4ncnc(N5CCOCC5)c34)c2)CC1 [Compound 24]
2.91 | -0.88 | 0.52 | O=C(Nc1cccc(-c2c[nH]c3ncnc(N4CCOCC4)c23)c1)C1(C(=O)Nc2cc(Br)c(F)cc2F)CC1 [Compound 25]
3.03 | -0.51 | 0.99 | O=C(Nc1cccc(-c2c[nH]c3ncnc(N4CCOCC4)c23)c1)C1(C(=O)Nc2ccc(F)c(Br)c2F)CC1 [Compound 26]
3.40 | -2.17 | 0.76 | O=C(Nc1cc(F)cc(Br)c1)C1(C(=O)Nc2cccc(-c3c[nH]c4ncnc(N5CCOCC5)c34)c2)CC1 [Compound 27]
